Assay results published in the supplement of paper PMC10307832.

Assays:
Assay in all cases: relative viability (nuclei count vs DMSO), 5 days (fraction); higher = more cells survive
[1] = compound: CC1=CC=C(C=C1)C(=O)CN2C3=C(CCCC3)SC2=N [Pifithrin_alpha] + Nc1nc2[nH]cc(CCc3ccc(C(=O)N[C@@H](CCC(=O)O)C(=O)O)cc3)c2c(=O)[nH]1 [Pemetrexed] (partner 0.2 µM)
How it was run: (§1)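 After 5 days of treatment, lung cancer cells in 1536-well plates were fixed and stained in a single step (final 0.05% Triton X-100, 1% formaldehyde, 1 ug/ml Hoechst) and their nuclei counted on 4× images. Treatment had been applied by pin tool the day after seeding as one drug alone or as a fixed anchor-drug dose with five library-drug doses (not always all listed) in √10 steps. Relative viability is the nuclei count of treated wells divided by that of vehicle wells, and values are medians of duplicate plates.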

[2] = compound: CC1=CC=C(C=C1)C(=O)CN2C3=C(CCCC3)SC2=N [Pifithrin_alpha] + O=C(CCCCCCC(=O)Nc1ccccc1)NO [Vorinostat] (partner 1 µM)
How it was run: as §1

Bemcentinib + Tozasertib = compound: Nc1nc(Nc2ccc3c(c2)CC[C@@H](N2CCCC2)CC3)nn1-c1cc2c(nn1)-c1ccccc1CCC2 [Bemcentinib] + Cc1cc(Nc2cc(N3CCN(C)CC3)nc(Sc3ccc(NC(=O)C4CC4)cc3)n2)n[nH]1 [Tozasertib] (partner 0.1 µM)
How it was run: as §1

Bemcentinib + Olaparib = compound: Nc1nc(Nc2ccc3c(c2)CC[C@@H](N2CCCC2)CC3)nn1-c1cc2c(nn1)-c1ccccc1CCC2 [Bemcentinib] + O=C(c1cc(Cc2n[nH]c(=O)c3ccccc23)ccc1F)N1CCN(C(=O)C2CC2)CC1 [Olaparib] (partner 8 µM)
How it was run: as §1

Row | Cell Line | relative viability ([1]; first compound 1 µM) | relative viability ([1]; first compound 3.162 µM) | relative viability ([1]; first compound 10 µM) | relative viability ([1]; first compound 31.62 µM) | relative viability ([1]; first compound 100 µM) | relative viability ([2]; first compound 1 µM) | relative viability ([2]; first compound 3.162 µM) | relative viability ([2]; first compound 10 µM) | relative viability ([2]; first compound 31.62 µM) | relative viability ([2]; first compound 100 µM) | relative viability (Bemcentinib + Tozasertib; first compound 0.04 µM) | relative viability (Bemcentinib + Tozasertib; first compound 0.1265 µM) | relative viability (Bemcentinib + Tozasertib; first compound 0.4 µM) | relative viability (Bemcentinib + Tozasertib; first compound 1.265 µM) | relative viability (Bemcentinib + Tozasertib; first compound 4 µM) | relative viability (Bemcentinib + Olaparib; first compound 0.04 µM) | relative viability (Bemcentinib + Olaparib; first compound 0.1265 µM) | relative viability (Bemcentinib + Olaparib; first compound 0.4 µM) | relative viability (Bemcentinib + Olaparib; first compound 1.265 µM) | relative viability (Bemcentinib + Olaparib; first compound 4 µM)
1 | NCI-H2009 | 0.985 | 1.01 | 0.949 | 0.702 | 0.944 | 0.697 | 0.715 | 0.601 | 0.399 | 0.57 | 0.741 | 0.785 | 0.765 | 0.569 | 0.677 | 0.651 | 0.778 | 0.734 | 0.698 | 0.697
2 | ChaGo-K-1 | 0.251 | 0.252 | 0.27 | 0.263 | 0.249 | 0.574 | 0.836 | 0.788 | 0.524 | 0.771 | 0.217 | 0.254 | 0.213 | 0.229 | 0.221 | 0.403 | 0.371 | 0.467 | 0.438 | 0.423
3 | SW 900 | 0.493 | 0.509 | 0.499 | 0.503 | 0.371 | 0.527 | 0.277 | 0.432 | 0.36 | 0.377 | 0.458 | 0.807 | 0.54 | 0.611 | 0.529 | 0.841 | 1.17 | 0.804 | 0.769 | 0.817
4 | NCI-H2342 | 0.628 | 0.741 | 0.729 | 0.855 | 0.782 | 0.746 | 0.632 | 0.769 | 0.815 | 0.741 | 0.574 | 0.429 | 0.492 | 0.464 | 0.516 | 0.43 | 0.441 | 0.359 | 0.486 | 0.463
5 | NCI-H460 | 0.0605 | 0.0587 | 0.0622 | 0.0636 | 0.0898 | 0.797 | 0.397 | 0.182 | 0.0968 | 0.178 | 0.432 | 0.619 | 0.525 | 0.364 | 0.524 | 0.433 | 0.407 | 0.555 | 0.52 | 0.473
6 | NCI-H322M | 0.635 | 0.599 | 0.605 | 0.578 | 0.511 | 0.807 | 0.811 | 0.802 | 0.788 | 0.845 | 0.5 | 0.582 | 0.483 | 0.527 | 0.525 | 0.796 | 0.84 | 0.844 | 0.854 | 0.839
7 | HCC-827 | 0.251 | 0.256 | 0.27 | 0.239 | 0.205 | 0.156 | 0.894 | 0.765 | 0.709 | 0.787 | 0.474 | 0.458 | 0.421 | 0.408 | 0.417 | 0.669 | 0.691 | 0.554 | 0.623 | 0.625
8 | HOP-62 | 0.209 | 0.4 | 0.38 | 0.304 | 0.441 | 0.436 | 0.603 | 0.645 | 0.375 | 0.658 | 0.379 | 0.413 | 0.35 | 0.39 | 0.387 | 0.342 | 0.621 | 0.575 | 0.528 | 0.472
9 | Calu-6 |  |  |  |  |  |  |  |  |  |  |  |  |  |  |  | 0.525 | 0.573 | 0.614 | 0.535 | 0.57
10 | NCI-H2023 | 0.28 | 0.254 | 0.215 | 0.157 | 0.153 | 0.726 | 0.577 | 0.545 | 0.334 | 0.464 | 0.484 | 0.438 | 0.433 | 0.295 | 0.273 | 0.461 | 0.487 | 0.463 | 0.511 | 0.501
11 | NCI-H441 | 0.297 | 0.248 | 0.235 |  | 0.244 | 0.766 | 0.735 | 0.876 |  | 0.931 | 0.733 | 0.847 | 0.781 | 0.649 | 0.611 | 0.606 | 0.665 | 0.53 | 0.537 | 0.402
12 | NCI-H1792 | 1.12 | 0.649 | 0.675 |  | 0.585 |  |  |  |  |  |  |  |  |  |  | 0.496 | 0.353 | 0.538 | 0.391 | 0.498
13 | ABC-1 |  |  |  |  |  |  | 1.25 | 0.844 | 0.622 | 0.765 | 0.16 | 0.175 | 0.187 | 0.193 | 0.162 | 0.627 | 0.843 | 0.855 | 0.774 | 0.792
14 | NCI-H727 |  |  |  |  |  | 0.461 | 1.18 | 1.14 | 0.777 | 1.35 | 0.537 | 0.759 | 0.606 | 0.629 | 0.58 | 0.678 | 0.618 | 0.813 | 0.52 | 0.747
15 | NCI-H1703 |  |  |  |  |  |  |  |  |  |  |  |  |  |  |  | 0.34 | 0.447 | 0.465 | 0.389 | 0.357
16 | NCI-H1623 |  |  |  |  |  |  |  |  |  |  | 0.427 | 0.438 | 0.455 | 0.461 | 0.442 |  |  |  |  | 
17 | NCI-H1563 | 0.54 | 0.813 | 0.817 | 0.769 | 0.749 |  |  |  |  |  |  |  |  |  |  |  |  |  |  | 
